Measurements from patent US12275731B2, “Azaindole inhibitors of wild-type and mutant forms of LRRK2” (DANA-FARBER CANCER INSTITUTE, INC., priority 2018, dated 2025).

How the values were obtained:
Experiment in all cases: KinomeScan profiling
Type in all cases: binding
DCAMKL1 = biological target: T1, DCAMKL1 (Homo sapiens, UniProt O15075); details: DCAMKL1, 1 μM; read-out: % control
T1 sequence (O15075 1-740): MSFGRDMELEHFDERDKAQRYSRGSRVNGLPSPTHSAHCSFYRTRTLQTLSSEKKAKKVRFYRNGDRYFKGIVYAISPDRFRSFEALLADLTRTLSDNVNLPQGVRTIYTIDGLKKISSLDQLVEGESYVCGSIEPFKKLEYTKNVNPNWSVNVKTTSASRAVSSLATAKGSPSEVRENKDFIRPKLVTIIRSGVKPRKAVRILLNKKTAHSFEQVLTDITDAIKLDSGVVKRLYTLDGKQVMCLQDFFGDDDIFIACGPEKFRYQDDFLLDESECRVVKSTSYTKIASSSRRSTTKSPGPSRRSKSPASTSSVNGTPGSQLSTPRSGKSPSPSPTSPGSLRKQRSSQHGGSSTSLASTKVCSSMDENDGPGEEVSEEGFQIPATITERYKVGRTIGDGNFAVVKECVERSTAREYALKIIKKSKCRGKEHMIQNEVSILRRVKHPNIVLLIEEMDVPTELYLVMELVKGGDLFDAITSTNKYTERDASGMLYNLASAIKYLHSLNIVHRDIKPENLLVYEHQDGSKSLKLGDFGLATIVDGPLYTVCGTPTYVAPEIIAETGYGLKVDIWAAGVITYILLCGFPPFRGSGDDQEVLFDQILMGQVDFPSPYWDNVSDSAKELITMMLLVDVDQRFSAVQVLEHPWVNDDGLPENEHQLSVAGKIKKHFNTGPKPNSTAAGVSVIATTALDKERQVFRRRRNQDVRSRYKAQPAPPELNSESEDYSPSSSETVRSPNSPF
How it was run: (§1)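 Single-point competition binding screen: 1 μM, DMSO, 468 kinases. Results reported as % control from RLU, normalised to DMSO and positive-control wells. Activity threshold: <35% control.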

FGFR1 = FGFR1 (Homo sapiens, UniProt P11362); details: FGFR1, 1 μM; read-out: % control
How it was run: as §1

IRAK3 = biological target: T2, IRAK3 (Homo sapiens, UniProt Q9Y616); details: IRAK3, 1 μM; read-out: % control
T2 construct: purchased KinomeScan®
T2 sequence (Q9Y616 1-596): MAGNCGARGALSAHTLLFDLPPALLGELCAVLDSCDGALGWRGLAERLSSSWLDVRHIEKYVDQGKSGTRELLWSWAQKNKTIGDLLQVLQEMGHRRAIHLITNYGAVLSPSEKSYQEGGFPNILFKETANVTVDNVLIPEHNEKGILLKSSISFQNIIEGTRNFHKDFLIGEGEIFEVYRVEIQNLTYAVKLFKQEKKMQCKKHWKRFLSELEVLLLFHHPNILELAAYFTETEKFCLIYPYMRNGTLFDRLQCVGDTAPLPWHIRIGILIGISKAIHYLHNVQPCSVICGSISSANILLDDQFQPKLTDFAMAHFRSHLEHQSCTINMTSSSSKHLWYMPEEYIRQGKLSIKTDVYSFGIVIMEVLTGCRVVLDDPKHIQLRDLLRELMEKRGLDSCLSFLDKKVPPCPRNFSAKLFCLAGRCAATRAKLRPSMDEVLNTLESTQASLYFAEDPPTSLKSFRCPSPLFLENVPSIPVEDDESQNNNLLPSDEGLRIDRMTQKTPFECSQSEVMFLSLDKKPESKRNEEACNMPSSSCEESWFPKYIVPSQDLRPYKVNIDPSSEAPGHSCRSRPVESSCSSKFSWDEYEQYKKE
How it was run: as §1

SRPK2 = biological target: T3, SRPK2 (Homo sapiens, UniProt P78362); details: SRPK2, 1 μM; read-out: % control
T3 construct: purchased KinomeScan® (panel service)
How it was run: as §1

TAOK3 = biological target: T4, TAOK3 (Homo sapiens, UniProt Q9H2K8); details: TAOK3, 1 μM; read-out: % control
T4 sequence (Q9H2K8 1-898): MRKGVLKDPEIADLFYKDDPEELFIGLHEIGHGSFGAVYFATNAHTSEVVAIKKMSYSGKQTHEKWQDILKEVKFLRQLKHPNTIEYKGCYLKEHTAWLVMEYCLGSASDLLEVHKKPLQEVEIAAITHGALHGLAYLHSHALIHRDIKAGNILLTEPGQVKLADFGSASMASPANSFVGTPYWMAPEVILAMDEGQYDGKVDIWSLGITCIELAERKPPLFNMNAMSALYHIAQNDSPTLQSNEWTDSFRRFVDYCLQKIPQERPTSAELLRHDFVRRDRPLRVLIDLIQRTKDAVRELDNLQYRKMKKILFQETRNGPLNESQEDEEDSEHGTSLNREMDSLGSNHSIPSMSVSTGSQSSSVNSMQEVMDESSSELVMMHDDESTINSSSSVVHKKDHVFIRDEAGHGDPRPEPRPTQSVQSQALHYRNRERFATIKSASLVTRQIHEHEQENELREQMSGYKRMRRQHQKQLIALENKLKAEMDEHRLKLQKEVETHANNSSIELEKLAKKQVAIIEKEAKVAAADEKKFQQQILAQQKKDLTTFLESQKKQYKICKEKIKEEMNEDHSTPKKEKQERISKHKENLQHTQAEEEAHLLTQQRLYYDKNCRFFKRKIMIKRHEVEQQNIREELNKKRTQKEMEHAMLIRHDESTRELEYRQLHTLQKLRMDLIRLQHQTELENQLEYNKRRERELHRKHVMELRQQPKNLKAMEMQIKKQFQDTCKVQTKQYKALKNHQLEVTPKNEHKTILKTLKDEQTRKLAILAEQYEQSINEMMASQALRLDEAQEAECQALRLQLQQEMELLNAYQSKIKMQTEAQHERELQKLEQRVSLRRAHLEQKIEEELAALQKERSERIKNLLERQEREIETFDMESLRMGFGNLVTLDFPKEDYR
How it was run: as §1

TNIK = TNIK (Homo sapiens, UniProt Q9UKE5); details: read-out: % control
How it was run: as §1

VRK2 = VRK2 (Homo sapiens, UniProt Q86Y07); details: VRK2, 1 μM; read-out: % control
How it was run: as §1

T3 sequence (P78362 whole entry): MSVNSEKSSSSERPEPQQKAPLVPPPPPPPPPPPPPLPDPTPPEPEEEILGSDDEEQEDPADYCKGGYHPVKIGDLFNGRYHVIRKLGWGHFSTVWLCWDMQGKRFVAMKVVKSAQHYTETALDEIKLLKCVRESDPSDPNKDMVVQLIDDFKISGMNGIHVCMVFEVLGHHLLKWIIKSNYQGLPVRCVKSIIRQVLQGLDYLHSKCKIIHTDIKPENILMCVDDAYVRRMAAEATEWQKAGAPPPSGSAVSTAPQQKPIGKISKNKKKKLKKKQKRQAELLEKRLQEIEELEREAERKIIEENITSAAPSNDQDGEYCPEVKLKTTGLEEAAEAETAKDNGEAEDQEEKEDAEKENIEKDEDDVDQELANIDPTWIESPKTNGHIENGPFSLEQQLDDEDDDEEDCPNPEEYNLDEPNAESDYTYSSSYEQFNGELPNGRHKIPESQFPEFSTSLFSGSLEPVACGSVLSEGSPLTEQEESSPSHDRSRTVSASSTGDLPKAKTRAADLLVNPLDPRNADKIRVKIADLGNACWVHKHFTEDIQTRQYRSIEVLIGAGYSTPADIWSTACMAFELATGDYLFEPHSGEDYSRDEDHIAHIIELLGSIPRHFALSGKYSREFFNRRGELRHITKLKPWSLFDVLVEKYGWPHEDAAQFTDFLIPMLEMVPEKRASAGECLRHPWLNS
Sequence of VRK2 (Q86Y07 whole entry): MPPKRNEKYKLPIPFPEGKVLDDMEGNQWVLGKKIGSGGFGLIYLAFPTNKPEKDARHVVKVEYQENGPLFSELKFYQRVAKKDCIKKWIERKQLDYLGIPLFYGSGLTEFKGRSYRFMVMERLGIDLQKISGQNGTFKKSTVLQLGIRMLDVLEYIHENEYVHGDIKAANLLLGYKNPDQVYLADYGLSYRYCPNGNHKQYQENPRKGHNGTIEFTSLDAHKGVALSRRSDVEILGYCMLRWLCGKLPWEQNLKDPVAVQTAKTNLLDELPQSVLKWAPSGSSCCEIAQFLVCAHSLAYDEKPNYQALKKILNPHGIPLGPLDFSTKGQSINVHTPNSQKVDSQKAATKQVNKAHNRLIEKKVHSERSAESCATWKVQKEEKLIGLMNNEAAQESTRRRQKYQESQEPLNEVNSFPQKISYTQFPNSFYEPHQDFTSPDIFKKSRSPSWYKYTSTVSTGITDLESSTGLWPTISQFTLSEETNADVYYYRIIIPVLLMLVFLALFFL
Sequence of FGFR1 (P11362 22-822): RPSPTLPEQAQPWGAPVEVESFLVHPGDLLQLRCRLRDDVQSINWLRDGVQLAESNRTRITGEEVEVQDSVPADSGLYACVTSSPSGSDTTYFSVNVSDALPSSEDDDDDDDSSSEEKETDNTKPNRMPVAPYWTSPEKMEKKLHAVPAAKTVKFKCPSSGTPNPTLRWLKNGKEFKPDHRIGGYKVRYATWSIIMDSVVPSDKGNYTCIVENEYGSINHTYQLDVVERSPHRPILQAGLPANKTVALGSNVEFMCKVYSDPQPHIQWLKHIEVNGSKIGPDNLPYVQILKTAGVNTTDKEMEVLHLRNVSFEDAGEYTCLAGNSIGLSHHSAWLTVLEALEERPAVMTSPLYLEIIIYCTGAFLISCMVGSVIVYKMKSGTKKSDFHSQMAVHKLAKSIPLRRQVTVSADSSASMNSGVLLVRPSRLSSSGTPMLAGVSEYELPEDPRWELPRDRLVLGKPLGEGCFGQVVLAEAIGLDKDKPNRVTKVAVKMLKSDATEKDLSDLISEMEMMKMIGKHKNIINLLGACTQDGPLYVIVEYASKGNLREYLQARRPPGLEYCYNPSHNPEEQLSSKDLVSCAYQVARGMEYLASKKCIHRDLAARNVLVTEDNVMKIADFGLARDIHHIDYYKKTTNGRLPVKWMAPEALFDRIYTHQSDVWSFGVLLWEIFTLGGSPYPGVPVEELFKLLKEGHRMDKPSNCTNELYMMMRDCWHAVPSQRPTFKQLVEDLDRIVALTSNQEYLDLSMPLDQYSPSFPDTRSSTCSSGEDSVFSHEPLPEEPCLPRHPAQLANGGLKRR
Sequence of TNIK (Q9UKE5 whole entry): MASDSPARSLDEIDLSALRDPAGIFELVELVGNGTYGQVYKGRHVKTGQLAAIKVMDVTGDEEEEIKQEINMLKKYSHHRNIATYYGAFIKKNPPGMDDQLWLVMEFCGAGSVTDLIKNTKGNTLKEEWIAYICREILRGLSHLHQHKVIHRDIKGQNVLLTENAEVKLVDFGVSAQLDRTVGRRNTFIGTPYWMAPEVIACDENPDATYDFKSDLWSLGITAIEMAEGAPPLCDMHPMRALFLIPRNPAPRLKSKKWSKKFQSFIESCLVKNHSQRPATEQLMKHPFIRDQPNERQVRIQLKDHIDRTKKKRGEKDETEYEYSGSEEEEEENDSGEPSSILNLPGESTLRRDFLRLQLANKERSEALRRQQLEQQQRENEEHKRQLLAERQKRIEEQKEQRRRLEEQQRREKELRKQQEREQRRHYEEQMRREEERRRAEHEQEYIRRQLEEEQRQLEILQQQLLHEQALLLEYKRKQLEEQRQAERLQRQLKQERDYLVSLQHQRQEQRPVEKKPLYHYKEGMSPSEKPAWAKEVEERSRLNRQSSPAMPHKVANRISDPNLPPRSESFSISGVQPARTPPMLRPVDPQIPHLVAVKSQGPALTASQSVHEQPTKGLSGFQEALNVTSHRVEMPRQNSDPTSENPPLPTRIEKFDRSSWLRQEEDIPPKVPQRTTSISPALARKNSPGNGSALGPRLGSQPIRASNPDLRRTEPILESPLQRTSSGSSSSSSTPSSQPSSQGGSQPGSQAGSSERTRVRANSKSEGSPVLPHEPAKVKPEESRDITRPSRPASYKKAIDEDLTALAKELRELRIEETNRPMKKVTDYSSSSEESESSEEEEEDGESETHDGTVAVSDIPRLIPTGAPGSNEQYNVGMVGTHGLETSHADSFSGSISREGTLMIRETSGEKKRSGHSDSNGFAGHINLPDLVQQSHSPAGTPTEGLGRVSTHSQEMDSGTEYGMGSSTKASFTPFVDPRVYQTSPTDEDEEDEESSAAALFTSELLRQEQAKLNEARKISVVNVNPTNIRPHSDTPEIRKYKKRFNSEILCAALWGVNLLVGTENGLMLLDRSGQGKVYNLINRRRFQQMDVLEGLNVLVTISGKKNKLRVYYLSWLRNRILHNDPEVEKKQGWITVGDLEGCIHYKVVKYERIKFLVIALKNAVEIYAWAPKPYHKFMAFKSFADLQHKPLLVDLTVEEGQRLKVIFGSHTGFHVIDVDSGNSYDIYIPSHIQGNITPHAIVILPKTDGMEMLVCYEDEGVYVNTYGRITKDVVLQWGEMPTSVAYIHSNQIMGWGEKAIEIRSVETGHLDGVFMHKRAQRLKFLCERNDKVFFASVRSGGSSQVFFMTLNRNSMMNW

Row | Compound | remaining binding at 1 µM (DCAMKL1) | remaining binding at 1 µM (FGFR1) | remaining binding at 1 µM (IRAK3) | remaining binding at 1 µM (SRPK2) | remaining binding at 1 µM (TAOK3) | remaining binding at 1 µM (TNIK) | remaining binding at 1 µM (VRK2)
1 | O=C(c1ccc(-c2cnc3[nH]cc(Cl)c3c2NC2CCCC2)cc1)N1CCC(N2CCOCC2)CC1 [Compound 101, (4-(3-chloro-4-(cyclopentylamino)-1H-pyrrolo[2,3-b]pyridin-5-yl)phenyl)(4-morpholinopiperidin-1-yl)methanone] | 90% | 77% | 37% | 60% | 88% | 89% | 100%
2 | CNc1c(-c2cnn([C@H]3CCN(C(C)=O)C[C@@H]3F)c2)cnc2[nH]cc(Cl)c12 [Compound 77, 1-((3S,4S)-4-(4-(3-chloro-4-(methylamino)-1H-pyrrolo[2,3-b]pyridin-5-yl)-1H-pyrazol-1-yl)-3-fluoropiperidin-1-yl)ethan-1-one] | 79% | 87% | 40% | 12% | 95% | 29% | 66%
3 | CNc1c(-c2ccc(C(=O)N3CCC(N4CCOCC4)CC3)cc2)cnc2[nH]cc(Cl)c12 [Compound 96, (4-(3-chloro-4-(methylamino)-1H-pyrrolo[2,3-b]pyridin-5-yl)phenyl)(4-morpholinopiperidin-1-yl)methanone] | 77% | 85% | 76% | 16% | 91% | 14% | 79%
